What was measured:
SIRT3 = molecular target: T1, SIRT3 (Homo sapiens, UniProt Q9NTG7); experiment: Sirtuin inhibition assay (HPLC), SIRT3; format: biochemical; conditions: substrate H3K9Ac; 500 μM NAD+, 500 μM peptide, 10 μM sirtuin, pH 7.5, 37 °C
T1 construct: SIRT3 (102-399); made in house
T1 sequence (Q9NTG7 102-399): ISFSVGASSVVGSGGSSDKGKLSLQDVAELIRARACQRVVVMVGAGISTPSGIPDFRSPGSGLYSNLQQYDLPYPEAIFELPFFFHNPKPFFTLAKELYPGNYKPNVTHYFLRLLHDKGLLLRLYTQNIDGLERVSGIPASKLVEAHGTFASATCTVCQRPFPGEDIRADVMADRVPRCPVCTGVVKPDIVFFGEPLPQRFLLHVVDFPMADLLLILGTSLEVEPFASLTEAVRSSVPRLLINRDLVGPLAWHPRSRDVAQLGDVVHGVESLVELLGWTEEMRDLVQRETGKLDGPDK
Experimental: (§1) Plasmids of SIRT1 (full length), SIRT2 (38-356), SIRT3 (102-399), and SIRT5 (34-302) were generous gifts from Dr. Hening Lin (Cornell University, Ithaca, NY, USA). SIRT6 was a gift from Cheryl Arrowsmith (Addgene plasmid #28271). The proteins were expressed and purified according to previously published protocols. The identity of the protein was confirmed by tryptic digestion followed by LC-MS/MS analysis performed at the Vermont Genetic Network (VGN) Proteomics Facility. Protein concentrations were determined by Bradford assay (Thermo Fisher Scientific, Rockford, IL, USA).
(§2) A typical reaction contained 500 μM NAD^+ and 500 μM peptide substrate (H3K9Ac for SIRT2, SIRT3 and SIRT6, p53K382Ac for SIRT1 and SIRT5) of varying concentrations of a small molecule probe in 100 mM phosphate buffer pH 7.5. The reactions were initiated by the addition of 10 μM of sirtuin and were incubated at 37 °C before being quenched by 8 μL of 10% TFA. The incubation time was controlled so that the conversion of substrate was less than 15%. The samples were then injected on an HPLC fitted to a Macherey-Nagel Nucleosil C18 column. NAD^+, NAM and AADPR (acetyl-ADP-ribose) peaks were resolved using a gradient of 0 to 20% methanol in 20 mM ammonium acetate. Chromatograms were analyzed at 260 nm. Reactions were quantified by integrating areas of peaks corresponding to NAD^+ and AADPR. Rates were plotted as a function of small molecule probe concentration, and points were fitted to the following equation:ν(%) = ν0(%) − [ν0(%)(10^x)/(10^x + IC50)](1) where ν(%) represents the turnover rate expressed as percent enzymatic activity remaining, and ν0(%) represents the uninhibited turnover rate expressed as an enzymatic activity of 100%. The variable x represents the log[probe] in nanomolar. IC50 values were derived from this equation.

[1] = test system: SIRT1, SIRT2, SIRT3, SIRT5, and SIRT6; experiment: Labeling in recombinant sirtuin mixture, isoform selectivity; format: biochemical, human
Experimental: Figure 4 Labeling of SIRT5 by probe 2B. (A) Dose-dependent labeling of SIRT5 by probe 2B in recombinantly expressed, partially purified sirtuin mixture. SIRT1, SIRT2, SIRT3, SIRT5, and SIRT6 were mixed and incubated with 500 μM NAD^+ and increasing concentrations of 2B. The samples were incubated at 37 °C for 10 min and subjected to UV irradiation for 20 min, and then “click” conjugated to TAMRA-azide; (B) Chemical structure of H3K9Suc; (C) Peptide competition. The labeling of SIRT5 by probe 2B decreased with increasing concentrations of the competitor peptide, H3K9Suc.
Remarkably, probe 2C was also able to label individual sirtuin isoforms in cell lysates. HEK293 cells overexpressing human SIRT2 were lysed, and the lysate was subjected to the labeling by 10 μM probe 2C.
A typical labeling experiment was performed as follows: in a 0.7 mL Eppendorf tube, purified recombinant human sirtuin (10 μM) was incubated with NAD^+ (500 μM) and activity-based probe at 37 °C for 10 min. The sample was transferred to a clear-bottom 96-well plate, placed on ice, and irradiated at 365 nm with a UV-lamp in a cold room. […] Then, destained gel was analyzed with in-gel fluorescence scanning using a Biorad ChemiDoc MP imager (excitation 532 nm, 580 nm cut-off filter and 30 nm band-pass). […]

SIRT5 = molecular target: T2, SIRT5 (Homo sapiens, UniProt Q9NXA8); experiment: Sirtuin inhibition assay (HPLC), SIRT5; format: biochemical
T2 construct: SIRT5 (34-302); made in house
T2 sequence (Q9NXA8 34-302): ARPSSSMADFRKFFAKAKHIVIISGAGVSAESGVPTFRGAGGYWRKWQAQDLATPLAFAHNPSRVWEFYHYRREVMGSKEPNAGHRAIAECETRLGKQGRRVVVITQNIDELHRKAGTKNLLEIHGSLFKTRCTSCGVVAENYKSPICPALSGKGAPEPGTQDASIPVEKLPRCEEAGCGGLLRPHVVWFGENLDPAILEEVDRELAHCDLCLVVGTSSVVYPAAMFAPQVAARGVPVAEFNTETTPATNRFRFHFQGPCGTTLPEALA
Experimental: as §1, §2

SIRT2 = molecular target: T3, SIRT2 (Homo sapiens, UniProt Q8IXJ6); experiment: Sirtuin inhibition assay (HPLC), SIRT2; format: biochemical
T3 construct: SIRT2 (38-356); made in house
T3 sequence (Q8IXJ6 38-356): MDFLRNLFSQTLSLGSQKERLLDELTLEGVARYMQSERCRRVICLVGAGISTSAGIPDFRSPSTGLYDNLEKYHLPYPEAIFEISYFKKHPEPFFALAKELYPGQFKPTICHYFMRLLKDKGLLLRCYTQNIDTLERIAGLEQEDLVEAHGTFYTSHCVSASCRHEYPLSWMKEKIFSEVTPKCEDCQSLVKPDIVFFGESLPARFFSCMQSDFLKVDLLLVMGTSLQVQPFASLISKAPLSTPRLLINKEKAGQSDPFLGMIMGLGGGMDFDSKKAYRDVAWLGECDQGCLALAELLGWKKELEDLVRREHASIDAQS
Experimental: as §1, §2

C#CCCCC1(CCC(=O)N[C@@H](CCCCNC(=S)CCC(=O)O)C(=O)N[C@@H](C)C(=O)N[C@@H](C)C(=O)OC)N=N1 [Probe 2B]
IC50 (SIRT3): > 5 mM
labeling of other sirtuin isoforms in sirtuin mixture ([1]; partially purified recombinant sirtuin mixture): negligible labeling of the other sirtuin isoforms
increase of SIRT5 inhibition compared with 1B (SIRT5; ratio of IC50s): ~1.7 fold
IC50 (SIRT2; substrate H3K9Ac, 500 μM NAD+, 500 μM peptide, 10 μM sirtuin, pH 7.5, 37 °C): > 5 mM

C#CCCCC1(CCC(=O)N[C@@H](CCCCNC(=S)CCCCCCCCCCCCC)C(=O)N[C@@H](C)C(=O)N[C@@H](C)C(=O)OC)N=N1 [Probe 2C]
IC50 (SIRT3): > 2 mM
isoforms labeled in sirtuin mixture [1]: highlighting SIRT1, SIRT2, and SIRT6
IC50 (SIRT5; substrate p53K382Ac, 500 μM NAD+, 500 μM peptide, 10 μM sirtuin, pH 7.5, 37 °C, NI = Not inhibited): > 5 mM
increase of SIRT2 inhibition compared with 1C (SIRT2; ratio of IC50s): 3 fold
selectivity for SIRT2 over SIRT6 (SIRT2; ratio of IC50s): ~2 fold
